Series [1] concerns advanced adrenocortical carcinoma (ACC). The note with it: cited from earlier work.
The test system is the same in series [2]. In words: Phase 3 study (GALACCTIC; Fassnacht et al. Lancet Oncology 2015) of OSI-906/linsitinib vs placebo in patients with advanced adrenocortical carcinoma. The series is classed as in vivo, human. The note with it: prior trial, 6/90 patients, unselected. An excerpt:
In some embodiments, the agent is an IGF1R inhibitor.
This includes 4 patients who achieved a partial response (PR) by RECIST criteria (Eisenhauer et al. Eur J. Cancer. 2009), and 2 patients who achieved long-term stable disease (SD; also by RECIST criteria, Eisenhauer et al. Eur J. Cancer. 2009).

For series [3], the system named is adrenocortical carcinoma (ACC). The note with it: cited from earlier work.
Setting [4] is: individual patients G-L, non-responders to OSI-906, per patient.

Structures are written as SMILES. Several values for one entry are separate records, joined by “and”; a condition that tells them apart may be missing. Identical values can stand only once. Like-named read-outs stand apart in the source and are kept apart here. Bounds are passed on as bounds.

Consider `C[C@]1(O)C[C@@H](c2nc(-c3ccc4ccc(-c5ccccc5)nc4c3)c3c(N)nccn32)C1` [OSI-906, linsitinib], for which the “Patients with favorable response / treated patients” value in series [1] (OSI-906-treated arm, unselected advanced ACC) was 6/90. The “Kaplan-Meier progression-free survival curves, linsitinib-treated vs placebo-treated” value in series [1] (all patients of the trial) is recorded as “no statistical difference”. Further, the “Progression-free survival (days)” value in series [1] (individual patients A-F, responders to OSI-906, per patient, '+' given after value) was 169+ days and 504+ days and 525+ days and 205+ days and 433+ days and 440+ days. Further, the “Best change from baseline in sum of target lesions (%)” value in series [1] (individual patients A-F, responders to OSI-906, per patient) was −50% and −45.625% and −45% and −5.882% and 0% and −78.46%. Also, in series [1] (setting [4]), the “Best change from baseline in sum of target lesions (%)” value was 32.26% and 35.29% and 38.28% and 48.35% and 23.51%; the “Progression-free survival” value was 38 days and 41 days and 42 days (3×) and 48 days. In series [1] (of 90 OSI-906-treated patients, RECIST), the “Number of patients who achieved a partial response (PR)” value was 4 patients. In series [1] (patients with ACC), the Drug toxicities result was “limited and manageable”; the “Primary endpoint of the Phase 3 study” value was “failed to reach the primary endpoint”. For the same compound, the “Progression-free survival of long-term durable responders” value in series [1] (small subset of linsitinib-treated patients, not seen with placebo) is listed as above 150 days. Further, in series [2], the Response rate is 6.7%.
Consider `Clc1ccc(C(c2ccccc2Cl)C(Cl)Cl)cc1` (centres unmarked) [mitotane], for which, in series [3] (mitotane therapy), the “Patients who recur during adjuvant therapy after surgery or progress during therapy for non-resectable disease” value is listed as “up to 90%”. Moreover, in series [3] (recent studies), the Efficacy entry is reported as “only marginally effective” and the Toxicity result was “highly toxic”.

The record behind these values is US20220241276A1, “COMPOSITIONS AND METHODS FOR TREATING CANCER” (The Regents of the University of Michigan, priority 2019, published 2022).
